Measured values: patent publication EP0067666A1, “Salts of antimicrobial naphthyridine and quinoline compounds and their production” (priority 1981, dated 1982)
Converted amounts (≈) assume the structure as drawn. Like-named read-outs stand apart in the source and are kept apart here.

Tests used:
[1] = Lyophilization of the salts; type: physicochemical
Text: The unpredictable characteristics of the salts prepared from Compounds A and B are clear from consideration of the results reported in Table 1. These characteristics were considered in view of the necessary requirements (a-f) outlined above for preparing a useful parenteral dosage form. […] From the data in Table 1, the lactate salts appear to be useful; however, lactic acid cannot be consistently obtained in a satisfactory grade in presently available commercial forms and is therefore not useful. The choline and sodium salts were ruled out based on the pH of their respective solutions.

[2] = tested on: Strep. faecalis MGH-2; assay: Antibacterial activity, MIC; type: cell-based
[3] = tested on: Staph. aureus UC-76; assay: Antibacterial activity, MIC; type: cell-based; conditions: based on content of compound B
[4] = tested on: Strep. pyogenes C-203; assay: Antibacterial activity, MIC; type: cell-based; conditions: based on content of compound B
[5] = tested on: Escherichia coli Vogel; assay: Acute mouse protection test; type: in vivo; conditions: single dose given at time of challenge, compound B series; for ED50: Escherichia coli
[6] = tested on: Klebs. pneumoniae MGH-2; assay: Antibacterial activity, MIC; type: cell-based
[7] = tested on: Klebsiella pneumoniae MGH-2; assay: Acute mouse protection test; type: in vivo; conditions: subcutaneous, single dose given at time of challenge, compound B series
[8] = tested on: Staphylococcus aureus UC-76; assay: Acute mouse protection test; type: in vivo; conditions: single dose given at time of challenge, compound B series; for Single sc Dose PD50 (mg/kg) ± 95% Confidence Limits Staphylococcus aureus UC-76: subcutaneous
[9] = tested on: Entero cloacae MA 2646; assay: Antibacterial activity, MIC; type: cell-based; conditions: based on content of compound B
[10] = tested on: Pseudo. aeruginosa UI-18; assay: Antibacterial activity, MIC; type: cell-based; conditions: based on content of compound B
[11] = tested on: E. coli Vogel; assay: Antibacterial activity, MIC; type: cell-based; conditions: based on content of compound B
[12] = tested on: Staph. aureus H 228; assay: Antibacterial activity, MIC; type: cell-based
[13] = tested on: Strep. pneumoniae SV-1; assay: Antibacterial activity, MIC; type: cell-based
[14] = tested on: Proteus retgeri M 1771; assay: Antibacterial activity, MIC; type: cell-based; conditions: based on content of compound B
[15] = Two-way crossover oral trial, drug blood levels by disk agar diffusion microbiological assay; type: in vivo; conditions: Beagle dogs, single 25 mg/kg (parent compound equivalent) oral dose in hard gelatine capsules; compound B compared with compound D as the glutamate
Protocol: Drug blood levels were determined by a disk agar diffusion microbiological assay.

## CCn1cc(C(=O)O)c(=O)c2cc(F)c(N3CCNCC3)cc21 [A acetate]
[1]
  lyophilization: cannot be successfully lyophilized

## CCn1cc(C(=O)O)c(=O)c2cc(F)c(N3CCNCC3)nc21 [B Glutamate]
[2]; based on content of compound B
  MIC µg/ml Strep. faecalis MGH-2: 3.1 µg/mL (≈ 9.68 µM)
[3]
  MIC µg/ml Staph. aureus UC-76: <0.1 µg/mL
[4]
  MIC µg/ml Strep. pyogenes C-203: 6.3 µg/mL (≈ 19.7 µM)
[5]; oral
  Single po Dose PD50 (mg/kg) ± 95% Confidence Limits Escherichia coli Vogel: 2.9 ± 1.0 mg/kg
[5]; subcutaneous
  Single sc Dose PD50 (mg/kg) ± 95% Confidence Limits Escherichia coli Vogel: 1.6 ± 0.6 mg/kg
[6]; based on content of compound B
  MIC µg/ml Klebs. pneumoniae MGH-2: 0.2 µg/mL (≈ 0.624 µM)
[7]
  Single sc Dose PD50 (mg/kg) ± 95% Confidence Limits Klebsiella pneumoniae MGH-2: 1.9 ± 0.9 mg/kg
[8]; oral
  Single po Dose PD50 (mg/kg) ± 95% Confidence Limits Staphylococcus aureus UC-76: 12.0 ± 3.0 mg/kg
[8]
  Single sc Dose PD50 (mg/kg) ± 95% Confidence Limits Staphylococcus aureus UC-76: 2.8 ± 1.0 mg/kg
[9]
  MIC µg/ml Entero cloacae MA 2646: 0.2 µg/mL (≈ 0.624 µM)
[10]
  MIC µg/ml Pseudo. aeruginosa UI-18: 0.2 µg/mL (≈ 0.624 µM)
[11]
  MIC µg/ml E. coli Vogel: <0.1 µg/mL
[12]; based on content of compound B
  MIC µg/ml Staph. aureus H 228: 1.6 µg/mL (≈ 4.99 µM)
[13]; based on content of compound B
  MIC µg/ml Strep. pneumoniae SV-1: 3.1 µg/mL (≈ 9.68 µM)
[14]
  MIC µg/ml Proteus retgeri M 1771: 0.1 µg/mL (≈ 0.312 µM)

## CCn1cc(C(=O)O)c(=O)c2cc(F)c(N3CCNCC3)nc21 [B acetate]
[1]
  lyophilization: cannot be successfully lyophilized

## CCn1cc(C(=O)O)c(=O)c2cc(F)c(N3CCNCC3)nc21 [Compound B L-Glutamic, 1-Ethyl-6-fluoro-1,4-dihydro-4-oxo-7-(1-piperazinyl)-1,8-naphthyridine-3-carboxylic acid L-glutamate]
[15]
  drug half-life: no significant difference
  peak blood level: no significant difference

## CCn1cc(C(=O)O)c(=O)c2cc(F)c(N3CCNCC3)nc21 [Compound B, 1-ethyl-6-fluoro-1,4-dihydro-4-oxo-7-(1-piperazinyl)-1,8-naphthyridine-3-carboxylic acid, reference compound]
[2]; Enterococcus faecalis, MGH2, based on content of compound B
  MIC: 1.6 µg/mL (≈ 4.99 µM)
[3]
  MIC µg/ml Staph. aureus UC-76: 0.2 µg/mL (≈ 0.624 µM)
[4]
  MIC µg/ml Strep. pyogenes C-203: 3.1 µg/mL (≈ 9.68 µM)
[5]; po, read-out: Single po Dose PD50 (mg/kg) ± 95% Confidence Limits Escherichia coli Vogel
  ED50: 3.1 ± 0.7 mg/kg
[5]; sc, subcutaneous, read-out: Single sc Dose PD50 (mg/kg) ± 95% Confidence Limits Escherichia coli Vogel
  ED50: 1.4 ± 0.4 mg/kg
[6]; Klebsiella pneumoniae, MGH2, based on content of compound B
  MIC: 0.1 µg/mL (≈ 0.312 µM)
[7]
  Single sc Dose PD50 (mg/kg) ± 95% Confidence Limits Klebsiella pneumoniae MGH-2: 2.6 ± 0.6 mg/kg
[8]; Staphylococcus aureus, UC76, po, oral, read-out: Single po Dose PD50 (mg/kg) ± 95% Confidence Limits Staphylococcus aureus UC-76
  ED50: 14 ± 7 mg/kg
[8]
  Single sc Dose PD50 (mg/kg) ± 95% Confidence Limits Staphylococcus aureus UC-76: 7.4 ± 2.2 mg/kg
[15]
  drug half-life: no significant difference
  peak blood level: no significant difference
[9]
  MIC: 0.2 µg/mL (≈ 0.624 µM)
[10]
  MIC µg/ml Pseudo. aeruginosa UI-18: 0.8 µg/mL (≈ 2.5 µM)
[11]; Escherichia coli
  MIC: 0.2 µg/mL (≈ 0.624 µM)
[12]; Staphylococcus aureus, H228, based on content of compound B
  MIC: 3.1 µg/mL (≈ 9.68 µM)
[13]; Streptococcus pneumoniae, SV1, based on content of compound B
  MIC: 3.1 µg/mL (≈ 9.68 µM)
[14]
  MIC: 0.1 µg/mL (≈ 0.312 µM)
